Measured values from patent publication US10899753B2, “Inhibiting agents for Bruton's tyrosine kinase” (BIOGEN MA INC., priority 2018, dated 2021).

Key:
BTK [1] = target: T1, BTK (Homo sapiens (Human), UniProt Q06187); assay: In Vitro PD Assay in Human Whole Blood (pBTK assay); type: cell-based; conditions: human heparinized whole blood, 37° C. for 30 min, total BTK capture and phosphotyrosine detection (ECL)
How it was run: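 Heparinized human venous whole blood spiked with serially diluted compound (0.1% DMSO final) and incubated 30 min at 37° C. Lysed with protease/phosphatase inhibitors (high control +PPi, low control −PPi lacking phosphatase inhibitors); total BTK captured and phosphotyrosine detected.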

BTK [2] = target: T1, BTK; assay: In Vitro BTK Kinase Assay: BTK-POLYGAT-LS ASSAY; type: biochemical; conditions: fluorescein-labeled polyGAT peptide 100 nM, BTK enzyme 0.25 nM, 30 minutes, TRF
How it was run: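 ATP […] and polyGAT peptide (100 nM), final concentrations, in Tris-HCl pH 7.5 kinase buffer with MgCl2, DTT, Triton X-100 and casein. Reaction run 30 min, stopped with EDTA, then 45 min at room temperature.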

T1 sequence (Q06187 whole entry): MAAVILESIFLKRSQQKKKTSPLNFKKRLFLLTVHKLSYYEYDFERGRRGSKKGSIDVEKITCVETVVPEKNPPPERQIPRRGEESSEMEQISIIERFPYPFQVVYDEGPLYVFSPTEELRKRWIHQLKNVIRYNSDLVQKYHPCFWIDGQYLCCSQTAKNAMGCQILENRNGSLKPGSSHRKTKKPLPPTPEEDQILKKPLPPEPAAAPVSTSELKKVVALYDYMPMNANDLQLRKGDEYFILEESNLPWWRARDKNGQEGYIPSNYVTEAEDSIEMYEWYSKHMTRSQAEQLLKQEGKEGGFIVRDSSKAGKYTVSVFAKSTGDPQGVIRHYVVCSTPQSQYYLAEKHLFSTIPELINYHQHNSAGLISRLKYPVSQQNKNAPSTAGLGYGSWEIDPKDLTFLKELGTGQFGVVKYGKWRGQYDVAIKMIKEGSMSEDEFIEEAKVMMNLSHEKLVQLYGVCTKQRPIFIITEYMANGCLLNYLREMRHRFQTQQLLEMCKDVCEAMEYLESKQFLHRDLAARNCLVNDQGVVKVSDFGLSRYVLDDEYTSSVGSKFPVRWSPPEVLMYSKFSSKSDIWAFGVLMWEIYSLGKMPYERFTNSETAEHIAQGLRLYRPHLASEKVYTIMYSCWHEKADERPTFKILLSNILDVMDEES

| SMILES | IC50 (BTK [1]) [nM] | IC50 (BTK [2]) [nM] |
| --- | --- | --- |
| Cn1ccc(Nc2ncnc(-c3ccc(CNC(=O)c4nc(C(C)(C)C)no4)c(CC(F)F)c3)n2)n1 [Compound 68, 3-(tert-butyl)-N-(2-(2,2-difluoroethyl)-4-(4-((1-methyl-1H-pyrazol-3-yl)amino)-1,3,5-triazin-2-yl)benzyl)-1,2,4-oxadiazole-5-carboxamide] | 500 to 10000 | 1 to 10 |
| C[C@@H](NC(=O)c1noc(C(C)(C)C)n1)c1ccc(-c2ncnc(Nc3cnn(C)c3)n2)c(F)c1Cl [Compound 69, (R)-5-(tert-butyl)-N-(1-(2-chloro-3-fluoro-4-(4-((1-methyl-1H-pyrazol-4-yl)amino)-1,3,5-triazin-2-yl)phenyl)ethyl)-1,2,4-oxadiazole-3-carboxamide] | < 100 | < 1 |
| Cc1c([C@@H](C)NC(=O)c2noc(C(C)(C)C)n2)ccc(-c2ncnc(Nc3ccn(C)n3)n2)c1F [Compound 71, (R)-5-(tert-butyl)-N-(1-(3-fluoro-2-methyl-4-(4-((1-methyl-1H-pyrazol-3-yl)amino)-1,3,5-triazin-2-yl)phenyl)ethyl)-1,2,4-oxadiazole-3-carboxamide] | 100 to 500 | < 1 |
| Cc1c([C@@H](C)NC(=O)c2nc(C(C)(C)C)no2)ccc(-c2ncnc(Nc3ccn(C)n3)n2)c1F [Compound 72, (R)-3-(tert-butyl)-N-(1-(3-fluoro-2-methyl-4-(4-((1-methyl-1H-pyrazol-3-yl)amino)-1,3,5-triazin-2-yl)phenyl)ethyl)-1,2,4-oxadiazole-5-carboxamide] | 100 to 500 | < 1 |
| Cc1c([C@@H](C)NC(=O)c2noc(C(C)(C)C)n2)ccc(-c2ncnc(Nc3cnn(C)c3)n2)c1F [Compound 73, (R)-5-(tert-butyl)-N-(1-(3-fluoro-2-methyl-4-(4-((1-methyl-1H-pyrazol-4-yl)amino)-1,3,5-triazin-2-yl)phenyl)ethyl)-1,2,4-oxadiazole-3-carboxamide] | < 100 | < 1 |
| Cc1c([C@@H](C)NC(=O)c2nc(C(C)(C)C)no2)ccc(-c2ncnc(Nc3cnn(C)c3)n2)c1F [Compound 74, (R)-3-(tert-butyl)-N-(1-(3-fluoro-2-methyl-4-(4-((1-methyl-1H-pyrazol-4-yl)amino)-1,3,5-triazin-2-yl)phenyl)ethyl)-1,2,4-oxadiazole-5-carboxamide] | < 100 | < 1 |
| Cc1c([C@@H](C)NC(=O)c2cc(C(C)(C)C)no2)ccc(-c2ncnc(Nc3cnn(C)c3)n2)c1F [Compound 75, (R)-3-(tert-butyl)-N-(1-(3-fluoro-2-methyl-4-(4-((1-methyl-1H-pyrazol-4-yl)amino)-1,3,5-triazin-2-yl)phenyl)ethyl)isoxazole-5-carboxamide] | 100 to 500 | < 1 |
| Cc1c([C@@H](C)NC(=O)c2cc(C(C)(C)C)on2)ccc(-c2ncnc(Nc3cnn(C)c3)n2)c1F [Compound 76, (R)-5-(tert-butyl)-N-(1-(3-fluoro-2-methyl-4-(4-((1-methyl-1H-pyrazol-4-yl)amino)-1,3,5-triazin-2-yl)phenyl)ethyl)isoxazole-3-carboxamide] | 100 to 500 | < 1 |
| Cc1c(-c2ncnc(Nc3cnn(C)c3)n2)ccc([C@@H](C)NC(=O)c2noc(C(C)(C)C)n2)c1Cl [Compound 77, (R)-5-(tert-butyl)-N-(1-(2-chloro-3-methyl-4-(4-((1-methyl-1H-pyrazol-4-yl)amino)-1,3,5-triazin-2-yl)phenyl)ethyl)-1,2,4-oxadiazole-3-carboxamide] | 100 to 500 | < 1 |
| Cc1c(-c2ncnc(Nc3cnn(C)c3)n2)ccc([C@@H](C)NC(=O)c2nc(C(C)(C)C)no2)c1Cl [Compound 78, (R)-3-(tert-butyl)-N-(1-(2-chloro-3-methyl-4-(4-((1-methyl-1H-pyrazol-4-yl)amino)-1,3,5-triazin-2-yl)phenyl)ethyl)-1,2,4-oxadiazole-5-carboxamide] | 100 to 500 | 1 to 10 |
| Cc1c(-c2ncnc(Nc3ccn(C)n3)n2)ccc([C@@H](C)NC(=O)c2noc(C(C)(C)C)n2)c1Cl [Compound 79, (R)-5-(tert-butyl)-N-(1-(2-chloro-3-methyl-4-(4-((1-methyl-1H-pyrazol-3-yl)amino)-1,3,5-triazin-2-yl)phenyl)ethyl)-1,2,4-oxadiazole-3-carboxamide] | 500 to 10000 | 1 to 10 |
| Cc1c([C@@H](C)NC(=O)c2nc(C(C)(C)C)no2)ccc(-c2ncnc(Nc3cnn(C)c3)n2)c1Cl [Compound 80, (R)-3-(tert-butyl)-N-(1-(3-chloro-2-methyl-4-(4-((1-methyl-1H-pyrazol-4-yl)amino)-1,3,5-triazin-2-yl)phenyl)ethyl)-1,2,4-oxadiazole-5-carboxamide] | 100 to 500 | < 1 |
| Cc1c([C@@H](C)NC(=O)c2noc(C(C)(C)C)n2)ccc(-c2ncnc(Nc3cnn(C)c3)n2)c1Cl [Compound 81, (R)-5-(tert-butyl)-N-(1-(3-chloro-2-methyl-4-(4-((1-methyl-1H-pyrazol-4-yl)amino)-1,3,5-triazin-2-yl)phenyl)ethyl)-1,2,4-oxadiazole-3-carboxamide] | < 100 | < 1 |
| C[C@@H](NC(=O)c1noc(C(C)(C)C)n1)c1ccc(-c2ncnc(Nc3ccn(C)n3)n2)c(F)c1C(F)F [Compound 82, (R)-5-(tert-butyl)-N-(1-(2-(difluoromethyl)-3-fluoro-4-(4-((1-methyl-1H-pyrazol-3-yl)amino)-1,3,5-triazin-2-yl)phenyl)ethyl)-1,2,4-oxadiazole-3-carboxamide] | 500 to 10000 | 1 to 10 |
| Cn1ccc(Nc2ncnc(-c3cc4c(cc3F)[C@H](NC(=O)c3noc(C(C)(C)C)n3)CCCC4)n2)n1 [Compound 84, (R)-5-(tert-butyl)-N-(3-fluoro-2-(4-((1-methyl-1H-pyrazol-3-yl)amino)-1,3,5-triazin-2-yl)-6,7,8,9-tetrahydro-5H-benzo[7]annulen-5-yl)-1,2,4-oxadiazole-3-carboxamide] | 100 to 500 | < 1 |
| Cn1ccc(Nc2ncnc(-c3cc4c(cc3F)[C@H](NC(=O)c3nc(C(C)(C)C)no3)CCCC4)n2)n1 [Compound 85, (R)-3-(tert-butyl)-N-(3-fluoro-2-(4-((1-methyl-1H-pyrazol-3-yl)amino)-1,3,5-triazin-2-yl)-6,7,8,9-tetrahydro-5H-benzo[7]annulen-5-yl)-1,2,4-oxadiazole-5-carboxamide] | < 100 | < 1 |
| Cn1cc(Nc2ncnc(-c3cc4c(cc3F)[C@H](NC(=O)c3noc(C(C)(C)C)n3)CCCC4)n2)cn1 [Compound 86, (R)-5-(tert-butyl)-N-(3-fluoro-2-(4-((1-methyl-1H-pyrazol-4-yl)amino)-1,3,5-triazin-2-yl)-6,7,8,9-tetrahydro-5H-benzo[7]annulen-5-yl)-1,2,4-oxadiazole-3-carboxamide] | < 100 | < 1 |
| Cn1cc(Nc2ncnc(-c3cc4c(cc3F)[C@H](NC(=O)c3nc(C(C)(C)C)no3)CCCC4)n2)cn1 [Compound 87, (R)-3-(tert-butyl)-N-(3-fluoro-2-(4-((1-methyl-1H-pyrazol-4-yl)amino)-1,3,5-triazin-2-yl)-6,7,8,9-tetrahydro-5H-benzo[7]annulen-5-yl)-1,2,4-oxadiazole-5-carboxamide] | < 100 | < 1 |
| Cn1cc(Nc2ncnc(-c3ccc4c(c3F)CCCC[C@H]4NC(=O)c3noc(C(C)(C)C)n3)n2)cn1 [Compound 88, (R)-5-(tert-butyl)-N-(1-fluoro-2-(4-((1-methyl-1H-pyrazol-4-yl)amino)-1,3,5-triazin-2-yl)-6,7,8,9-tetrahydro-5H-benzo[7]annulen-5-yl)-1,2,4-oxadiazole-3-carboxamide] | < 100 | < 1 |
| Cn1ccc(Nc2ncnc(-c3ccc4c(c3F)CCCC[C@H]4NC(=O)c3nc(C(C)(C)C)no3)n2)n1 [Compound 89, (R)-3-(tert-butyl)-N-(1-fluoro-2-(4-((1-methyl-1H-pyrazol-3-yl)amino)-1,3,5-triazin-2-yl)-6,7,8,9-tetrahydro-5H-benzo[7]annulen-5-yl)-1,2,4-oxadiazole-5-carboxamide] | < 100 | < 1 |
| Cn1cc(Nc2ncnc(-c3ccc4c(c3)CN(CC(F)(F)F)CC[C@H]4NC(=O)c3noc(C(C)(C)C)n3)n2)cn1 [Compound 90, (R)-5-(tert-butyl)-N-(8-(4-((1-methyl-1H-pyrazol-4-yl)amino)-1,3,5-triazin-2-yl)-2-(2,2,2-trifluoroethyl)-2,3,4,5-tetrahydro-1H-benzo[c]azepin-5-yl)-1,2,4-oxadiazole-3-carboxamide] | < 100 | < 1 |
| Cn1cc(Nc2ncnc(-c3ccc4c(c3)CN(CC(F)(F)F)CC[C@H]4NC(=O)c3coc(C(C)(C)C)n3)n2)cn1 [Compound 92, 2-tert-butyl-N-[(5R)-8-[4-[(1-methylpyrazol-4-yl)amino]-1,3,5-triazin-2-yl]-2-(2,2,2-trifluoroethyl)-1,3,4,5-tetrahydro-2-benzazepin-5-yl]oxazole-4-carboxamide] | < 100 | < 1 |
| Cn1cc(Nc2ncnc(-c3ccc4c(c3)CN(CC(F)(F)F)CC[C@H]4NC(=O)c3nc(C(C)(C)C)co3)n2)cn1 [Compound 93, 4-tert-butyl-N-[(5R)-8-[4-[(1-methylpyrazol-4-yl)amino]-1,3,5-triazin-2-yl]-2-(2,2,2-trifluoroethyl)-1,3,4,5-tetrahydro-2-benzazepin-5-yl]oxazole-2-carboxamide] | < 100 | < 1 |
